Results on twelve molecules are retold here after patent publication US20260022142A1, “MACROCYCLIC IMMUNOMODULATORS” (Bristol-Myers Squibb Company, priority 2022, published 2026).

Bridge positions count the residues as written; N and C are the ends. Square brackets hold non-standard residues; d marks the D form. Peptide text beside a SMILES is read from it. * marks the point of attachment. ξ: configuration not given here. Phe(3-CF3) = N[C@@H](Cc1cccc(C(F)(F)F)c1)C(=O)O; Phe(4-COOH) = N[C@@H](Cc1ccc(C(=O)O)cc1)C(=O)O; Bip = N[C@@H](Cc1ccc(-c2ccccc2)cc1)C(=O)O; Phe(3-Me) = Cc1cccc(C[C@H](N)C(=O)O)c1; Phe(4-Me) = Cc1ccc(C[C@H](N)C(=O)O)cc1; NH(CH2)12COOH = O=C(O)CCCCCCCCCCCCN*; Cyclopropanecarbonyl = O=C(C1CC1)*; Val(3-OH) = CC(C)(O)[C@H](N)C(=O)O; Cha = N[C@@H](CC1CCCCC1)C(=O)O; Cit = NC(=O)NCCC[C@H](N)C(=O)O; Thr(3ξ) = CC(O)[C@H](N)C(=O)O; 12Ado = NCCCCCCCCCCCC(=O)O; Carboxymethyl = O=C(O)C*; Orn = NCCC[C@H](N)C(=O)O; Aun = NCCCCCCCCCCC(=O)O; Dab = NCC[C@H](N)C(=O)O; Nva = CCC[C@H](N)C(=O)O; Dap = NC[C@H](N)C(=O)O; AEEA = NCCOCCOCC(=O)O

The target in this assay is T1, PD-1/PD-L1 interaction (PE-labeled human PD-L1-Ig binding to Jurkat cell line over-expressing human PD-1) (Homo sapiens, UniProt Q15116).
T1 construct: expressed in transfected cells; host or cells: Jurkat
T1 sequence (Q15116 25-288): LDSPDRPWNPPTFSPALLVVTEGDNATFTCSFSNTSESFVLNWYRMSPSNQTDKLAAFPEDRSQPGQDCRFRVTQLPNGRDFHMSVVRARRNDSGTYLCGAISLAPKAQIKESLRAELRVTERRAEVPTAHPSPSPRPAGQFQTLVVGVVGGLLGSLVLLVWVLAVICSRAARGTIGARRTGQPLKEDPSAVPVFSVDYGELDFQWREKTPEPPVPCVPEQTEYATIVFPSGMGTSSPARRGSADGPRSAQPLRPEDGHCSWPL
In words: Jurkat-PD-1 Cell Binding High-Content Screening Assay (CBA). Type of assay: cell-based. Conditions: Jurkat cell line over-expressing human PD-1; PE-labeled PD-L1-Ig 20 nM final; read-out: Jurkat hPD1-PDL1 IC50. The gist of the method:
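Human PD-L1-Ig carrying a covalent PE label on its Ig tag serves as the probe, applied at 20 nM final to compound-treated (2 h, 37° C) Jurkat-hPD-1 cells in medium with 10% fetal calf serum. After one hour, fixation and nuclear staining precede high-content image analysis.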
Regarding `Cc1ccc(C[C@@H]2NC(=O)[C@H](Cc3ccc(-c4ccccc4)cc3)NC(=O)[C@H](Cc3ccc(O)cc3)NC(=O)[C@H](Cc3cccc(C)c3)NC(=O)[C@H](CC(=O)O)NC(=O)[C@H](Cc3ccc(OCC(=O)O)cc3)NC(=O)[C@H](CN)NC(=O)CSC[C@@H](C(=O)N[C@@H](CCN)C(=O)NCCOCCOCC(=O)NCCCCCCCCCCC(=O)O)NC(=O)[C@H](CCCN)NC(=O)[C@H](C(C)C)NC(=O)[C@H](CC3CCCCC3)NC(=O)[C@H](CCN)NC(=O)[C@@H](CC(C)C)NC(=O)[C@H](CCCN)NC2=O)cc1` [Compound 2054] ({CH2CO}-[Dap]Y(Carboxymethyl)D[Phe(3-Me)]Y[Bip][Phe(4-Me)][Orn][dL][Dab][Cha]V[Orn]C[Dab][AEEA][Aun]-OH; thioether N-14), the concentration for half-maximal inhibition (IC50) was 0.0129 µM.
Regarding `Cc1cccc(C[C@@H]2NC(=O)[C@H](CC(=O)O)NC(=O)[C@H](Cc3ccc(OCC(=O)O)cc3)NC(=O)[C@H](CCCNC(=N)N)NC(=O)CSC[C@@H](C(=O)NCCOCCOCC(=O)NCCCCCCCCCCC(=O)O)NC(=O)[C@H](CCCN)NC(=O)[C@H](C(C)C)NC(=O)[C@H](CC3CCCCC3)NC(=O)[C@H](CCN)NC(=O)[C@@H](CC(C)C)NC(=O)[C@H](CCN)NC(=O)[C@H](C(C)C)NC(=O)[C@H](Cc3ccc(-c4ccccc4)cc3)NC(=O)[C@H](C(C)C)NC2=O)c1` [Compound 3351] ({CH2CO}-RY(Carboxymethyl)D[Phe(3-Me)]V[Bip]V[Dab][dL][Dab][Cha]V[Orn]C[AEEA][Aun]-OH; thioether N-14), the concentration for half-maximal inhibition (IC50) stood at 0.0042 µM.
The figure for `Cc1cccc(C[C@@H]2NC(=O)[C@H](CC(=O)O)NC(=O)[C@H](Cc3ccc(OCC(=O)O)cc3)NC(=O)[C@H](CCCNC(=N)N)NC(=O)CSC[C@@H](C(=O)N[C@H](CC(N)=O)C(=O)NCCCCCCCCCCC(=O)O)NC(=O)[C@H](CO)NC(=O)[C@H](C(C)O)NC(=O)[C@H](CC3CCCCC3)NC(=O)[C@H](CCN)NC(=O)[C@@H](CC(C)C)NC(=O)[C@H](CCCN)NC(=O)[C@H](Cc3ccc(OCC(=O)O)cc3)NC(=O)[C@H](Cc3ccc(-c4ccccc4)cc3)NC(=O)[C@H](Cc3ccc(OCC(=O)O)cc3)NC2=O)c1` (stereo partly drawn) [Compound 3526] ({CH2CO}-RY(Carboxymethyl)D[Phe(3-Me)]Y(Carboxymethyl)[Bip]Y(Carboxymethyl)[Orn][dL][Dab][Cha][Thr(3ξ)]SC[dN][Aun]-OH; thioether N-14) is 0.112 µM; for `Cc1cccc(C[C@@H]2NC(=O)[C@H](CC(=O)O)NC(=O)[C@H](Cc3ccc(OCC(=O)O)cc3)NC(=O)[C@H](CN)NC(=O)CSC[C@@H](C(=O)N[C@@H](CCN)C(=O)NCCOCCOCC(=O)NCCCCCCCCCCC(=O)O)NC(=O)[C@H](C(C)O)NC(=O)[C@H](C(C)C)NC(=O)[C@H](CC3CCCCC3)NC(=O)[C@H](CCN)NC(=O)[C@@H](CC(C)C)NC(=O)[C@H](CCCN)NC(=O)[C@H](CCCNC(N)=O)NC(=O)[C@H](Cc3ccc(-c4ccccc4)cc3)NC(=O)[C@H](Cc3ccc(O)cc3)NC2=O)c1` (stereo partly drawn) [Compound 2579] ({CH2CO}-[Dap]Y(Carboxymethyl)D[Phe(3-Me)]Y[Bip][Cit][Orn][dL][Dab][Cha]V[Thr(3ξ)]C[Dab][AEEA][Aun]-OH; thioether N-14) it is 0.0118 µM; for `CC(C)C[C@@H]1NC(=O)CSC[C@@H](C(=O)N[C@@H](CCN)C(=O)NCCCCCCCCCCCCC(=O)O)NC(=O)[C@H](CO)NC(=O)[C@H](C(C)(C)O)NC(=O)[C@H](CC2CCCCC2)NC(=O)[C@H](CCN)NC(=O)[C@@H](CC(C)C)NC(=O)[C@H](CCCN)NC(=O)[C@H](Cc2ccc(OCC(=O)O)cc2)NC(=O)[C@H](Cc2ccc(-c3ccccc3)cc2)NC(=O)[C@H](Cc2ccc(OCC(=O)O)cc2)NC(=O)[C@H](Cc2cccc(C(F)(F)F)c2)NC(=O)[C@H](CC(=O)O)NC(=O)[C@H](Cc2ccc(OCC(=O)O)cc2)NC1=O` [Compound 3835] ({CH2CO}-LY(Carboxymethyl)D[Phe(3-CF3)]Y(Carboxymethyl)[Bip]Y(Carboxymethyl)[Orn][dL][Dab][Cha][Val(3-OH)]SC[Dab]-{NH(CH2)12COOH}; thioether N-14) it is 0.0283 µM.
For `Cc1cccc(C[C@@H]2NC(=O)[C@H](CC(=O)O)NC(=O)[C@H](Cc3ccc(OCC(=O)O)cc3)NC(=O)[C@H](CN)NC(=O)CSC[C@@H](C(=O)N[C@@H](CCN)C(=O)NCCCCCCCCCCC(=O)O)NC(=O)[C@H](CCC(N)=O)NC(=O)[C@H](C(C)C)NC(=O)[C@H](CC3CCCCC3)NC(=O)[C@H](CCN)NC(=O)[C@@H](CC(C)C)NC(=O)[C@H](CCCN)NC(=O)[C@H](CCCNC(N)=O)NC(=O)[C@H](Cc3ccc(-c4ccccc4)cc3)NC(=O)[C@H](C(C)C)NC2=O)c1` [Compound 1244] ({CH2CO}-[Dap]Y(Carboxymethyl)D[Phe(3-Me)]V[Bip][Cit][Orn][dL][Dab][Cha]VQC[Dab][Aun]-OH; thioether N-14), the 50% inhibitory concentration (IC50) turned out to be 0.0162 µM.
The result for `Cc1cccc(C[C@@H]2NC(=O)[C@H](CC(=O)O)NC(=O)[C@H](Cc3ccc(OCC(=O)O)cc3)NC(=O)[C@H](CCCNC(=N)N)NC(=O)CSC[C@@H](C(=O)N[C@@H](CCN)C(=O)NCCCCCCCCCCC(=O)O)NC(=O)[C@H](CCCN)NC(=O)[C@H](C(C)(C)O)NC(=O)[C@H](CC3CCCCC3)NC(=O)[C@H](CCN)NC(=O)[C@@H](CC(C)C)NC(=O)[C@H](CCCN)NC(=O)[C@H](Cc3ccc(OCC(=O)O)cc3)NC(=O)[C@H](Cc3ccc(-c4ccccc4)cc3)NC(=O)[C@H](Cc3ccc(OCC(=O)O)cc3)NC2=O)c1` [Compound 2849] ({CH2CO}-RY(Carboxymethyl)D[Phe(3-Me)]Y(Carboxymethyl)[Bip]Y(Carboxymethyl)[Orn][dL][Dab][Cha][Val(3-OH)][Orn]C[Dab][Aun]-OH; thioether N-14) reads 0.005 µM; that for `Cc1cccc(C[C@@H]2NC(=O)[C@H](CC(=O)O)NC(=O)[C@H](Cc3ccc(OCC(=O)O)cc3)NC(=O)[C@H](CN)NC(=O)CSC[C@@H](C(=O)N[C@@H](CCN)C(=O)NCCOCCOCC(=O)NCCCCCCCCCCC(=O)O)NC(=O)[C@H](CCCNC(=N)N)NC(=O)[C@H](C(C)C)NC(=O)[C@H](CC3CCCCC3)NC(=O)[C@H](CCN)NC(=O)[C@@H](CC(C)C)NC(=O)[C@H](CCCN)NC(=O)[C@H](CCCNC(N)=O)NC(=O)[C@H](Cc3ccc(-c4ccccc4)cc3)NC(=O)[C@H](C(C)C)NC2=O)c1` [Compound 2635] ({CH2CO}-[Dap]Y(Carboxymethyl)D[Phe(3-Me)]V[Bip][Cit][Orn][dL][Dab][Cha]VRC[Dab][AEEA][Aun]-OH; thioether N-14), 0.0103 µM.
Turning to `Cc1cccc(C[C@@H]2NC(=O)[C@H](CC(=O)O)NC(=O)[C@H](Cc3ccc(OCC(=O)O)cc3)NC(=O)[C@H](CN)NC(=O)CSC[C@@H](C(=O)N[C@@H](CCN)C(=O)NCCCCCCCCCCC(=O)O)NC(=O)[C@H](CCC(N)=O)NC(=O)[C@H](C(C)C)NC(=O)[C@H](CC3CCCCC3)NC(=O)[C@H](CCN)NC(=O)[C@@H](CC(C)C)NC(=O)[C@H](CCCN)NC(=O)[C@H](Cc3ccc(O)cc3)NC(=O)[C@H](Cc3ccc(-c4ccccc4)cc3)NC(=O)[C@H](C(C)C)NC2=O)c1` [Compound 2719] ({CH2CO}-[Dap]Y(Carboxymethyl)D[Phe(3-Me)]V[Bip]Y[Orn][dL][Dab][Cha]VQC[Dab][Aun]-OH; thioether N-14), the 50% inhibitory concentration (IC50) is 0.0074 µM.
The figure for `CCC[C@@H]1NC(=O)CSC[C@@H](C(=O)N[C@@H](CCN)C(=O)NCCOCCOCC(=O)NCCCCCCCCCCC(=O)O)NC(=O)[C@H](CO)NC(=O)[C@H](C(C)(C)O)NC(=O)[C@H](CC2CCCCC2)NC(=O)[C@H](CCN)NC(=O)[C@@H](CC(C)C)NC(=O)[C@H](CCCN)NC(=O)[C@H](Cc2ccc(OCC(=O)O)cc2)NC(=O)[C@H](Cc2ccc(-c3ccccc3)cc2)NC(=O)[C@H](Cc2ccc(OCC(=O)O)cc2)NC(=O)[C@H](Cc2cccc(C)c2)NC(=O)[C@H](CC(=O)O)NC(=O)[C@H](Cc2ccc(C(=O)O)cc2)NC1=O` [Compound 2247] ({CH2CO}-[Nva][Phe(4-COOH)]D[Phe(3-Me)]Y(Carboxymethyl)[Bip]Y(Carboxymethyl)[Orn][dL][Dab][Cha][Val(3-OH)]SC[Dab][AEEA][Aun]-OH; thioether N-14) is 0.0013 µM; for `Cc1cccc(C[C@@H]2NC(=O)[C@H](CC(=O)O)NC(=O)[C@H](Cc3ccc(OCC(=O)O)cc3)NC(=O)[C@H](CCCNC(=O)C3CC3)NC(=O)CSC[C@@H](C(=O)N[C@@H](CCCN)C(=O)N[C@@H](CO)C(=O)NCCCCCCCCCCCC(=O)O)NC(=O)[C@H](C(C)O)NC(=O)[C@H](C(C)C)NC(=O)[C@H](CC3CCCCC3)NC(=O)[C@H](CCN)NC(=O)[C@@H](CC(C)C)NC(=O)[C@H](CCCN)NC(=O)[C@H](CCCNC(=N)N)NC(=O)[C@H](Cc3ccc(-c4ccccc4)cc3)NC(=O)[C@H](C(C)C)NC2=O)c1` (stereo partly drawn) [Compound 3572] ({CH2CO}-[Orn](Cyclopropanecarbonyl)Y(Carboxymethyl)D[Phe(3-Me)]V[Bip]R[Orn][dL][Dab][Cha]V[Thr(3ξ)]C[Orn]S[12Ado]-OH; thioether N-14) it is 0.0261 µM.
The figure for `CC(C)C[C@H]1NC(=O)[C@H](CCCN)NC(=O)[C@H](C(C)C)NC(=O)[C@H](Cc2ccc(-c3ccccc3)cc2)NC(=O)[C@H](C(C)C)NC(=O)[C@H](Cc2c[nH]c3ccccc23)NC(=O)[C@H](CC(=O)O)NC(=O)[C@H](Cc2ccc(OCC(=O)O)cc2)NC(=O)[C@H](CN)NC(=O)CSC[C@@H](C(=O)NCCOCCOCC(=O)N[C@@H](CCCCN)C(=O)NCCCCCCCCCCC(=O)O)NC(=O)[C@H](C(C)O)NC(=O)[C@H](C(C)C)NC(=O)[C@H](CC2CCCCC2)NC(=O)[C@H](CC(=O)O)NC1=O` (stereo partly drawn) [Compound 3147] ({CH2CO}-[Dap]Y(Carboxymethyl)DWV[Bip]V[Orn][dL]D[Cha]V[Thr(3ξ)]C[AEEA]K[Aun]-OH; thioether N-14) is 0.0297 µM.
